Source: patent US20230146455A1, “TREATMENT OF INFLAMMATORY DISEASES WITH PEPTIDES AND PHARMACEUTICAL COMPOSITIONS” (Yuyu Pharma, Inc., priority 2020, published 2023)
Several values for one entry are separate records, joined by “and”; a condition that tells them apart may be missing. Identical values can stand only once. Where a SMILES comes first, the peptide text is derived from it. [ ]: non-standard residue; d: D form. Hyp = O=C(O)[C@@H]1C[C@@H](O)CN1

Test system: CCL2/JE/MCP-1
Test: Example 9 Luminex, LPS hPBMCs: CCL2/JE/MCP-1
Format: cell-based, human
Protocol: Treatment Human PBMCs were pretreated with YY-101, YDE-011 and YDE-043 or reference compound; Xiidra® at various concentration (ranging from 1 nM to 100 uM) for 2 h before stimulation. An equal volume of 0.5% DMSO was used as a vehicle control. Then, the cells were treated with LPS at 5 ug/ml. The supernatants from treated cells were harvested at 24 h and placed in a 96 well for Luminex cytokine & chemokine profiling using a Luminex 200 multiplex assay (Luminex; R&D system, USA).
The main study arm with triplicate wells per group in a 24-well plate: • 1. Blank • 2. PBMC: 0.5% DMSO • 3. PBMC+LPS (5 ug/ml) • 4. PBMC+YY-101 100 uM • 5. PBMC+YY-101 10 uM • 6. PBMC+YY-101 1 uM • 7. PBMC+YY-101 0.1 uM • 8. PBMC+YY-101 0.01 uM • 9. PBMC+LPS (5 ug/ml)+Xiidra®100 uM • 10. PBMC+LPS (5 ug/ml)+Xiidra® 10 uM • 11. PBMC+LPS (5 ug/ml)+Xiidra® 1 uM • 12. PBMC+LPS (5 ug/ml)+Xiidra®0.1 uM • 13. PBMC+LPS (5 ug/ml)+Xiidra®0.01 uM • 14. PBMC+LPS (5 ug/ml)+Xiidra®0.001 uM • 15. PBMC+LPS (5 ug/ml)+YY-101 100 uM • 16. PBMC+LPS (5 ug/ml)+YY-101 10 uM • 17. PBMC+LPS (5 ug/ml)+YY-101 1 uM • 18. PBMC+LPS (5 ug/ml)+YY-101 0.1 uM • 19. PBMC+LPS (5 ug/ml)+YY-101 0.01 uM • 20. PBMC+LPS (5 ug/ml)+YY-101 0.001 uM • 21. PBMC+LPS (5 ug/ml)+YDE-011 100 uM • 22. PBMC+LPS (5 ug/ml)+YDE-011 10 uM • 23. PBMC+LPS (5 ug/ml)+YDE-011 1 uM • 24. PBMC+LPS (5 ug/ml)+YDE-011 0.1 uM • 25. PBMC+LPS (5 ug/ml)+YDE-011 0.01 uM • 26. PBMC+LPS (5 ug/ml)+YDE-011 0.001 uM • 27. PBMC+LPS (5 ug/ml)+YDE-043 100 uM • 28. PBMC+LPS (5 ug/ml)+YDE-043 10 uM • 29. PBMC+LPS (5 ug/ml)+YDE-043 1 uM • 30. PBMC+LPS (5 ug/ml)+YDE-043 0.1 uM • 31. PBMC+LPS (5 ug/ml)+YDE-043 0.01 uM • 32. PBMC+LPS (5 ug/ml)+YDE-043 0.001 uM
Multiplex assay was used to measure 30 cytokines and chemokines. The 1:2, 1:10 and 1:200 diluted cell supernatant and serial dilution of the standard were dispensed into a 96 well plate at 50 ul/well. Then, the pre-mixed cocktail of antibody-coated magnetic beads was dispensed at 50 ul/well and incubated at room temperature for 2 h in a horizontal orbital microplate shaker at 800±500 rpm. The beads were washed using a magnetic device to prevent loss. The biotin-antibody was dispensed in 50 ul of each well and incubated at room temperature for 1 h in a shaker at 800±500 rpm. After washing, streptavidin-PE was added at 50 ul/well and incubated at room temperature for 30 min in a shaker under the same conditions. Finally, after washing, wash buffer (100 ul/well) was added to the plate and incubated in a shaker for 2 min. The Luminex™ 200 setting were set according to the manufacturer's protocol. The data was calculated with a standard five-parameter logistic nonlinear regression analysis of the data (xPonent software 4.2, USA). The levels of cytokine/chemokine are normalized to the live cell counts (1×10^5 cells/mL) and presented as concentrations per mL (pg/mL or ng/mL).

[1] = PBMC + LPS(5 ug/ml) + test article 0.001 uM, Mean
[2] = PBMC + LPS(5 ug/ml) + test article 0.001 uM, individual replicates
[3] = PBMC + LPS(5 ug/ml) + test article 0.01 uM, Mean
[4] = PBMC + LPS(5 ug/ml) + test article 0.01 uM, individual replicates
[5] = PBMC + LPS(5 ug/ml) + test article 0.1 uM, Mean
[6] = PBMC + LPS(5 ug/ml) + test article 0.1 uM, individual replicates
[7] = PBMC + LPS(5 ug/ml) + test article 1 uM, Mean
[8] = PBMC + LPS(5 ug/ml) + test article 1 uM, individual replicates
[9] = PBMC + LPS(5 ug/ml) + test article 10 uM, Mean
[10] = PBMC + LPS(5 ug/ml) + test article 10 uM, individual replicates
[11] = PBMC + LPS(5 ug/ml) + test article 100 uM, Mean
[12] = PBMC + LPS(5 ug/ml) + test article 100 uM, individual replicates
[13] = PBMC + test article 0.01 uM, no LPS, Mean
[14] = PBMC + test article 0.01 uM, no LPS, individual replicates
[15] = PBMC + test article 0.1 uM, no LPS, Mean
[16] = PBMC + test article 0.1 uM, no LPS, individual replicates
[17] = PBMC + test article 1 uM, no LPS, Mean
[18] = PBMC + test article 1 uM, no LPS, individual replicates
[19] = PBMC + test article 10 uM, no LPS, Mean
[20] = PBMC + test article 10 uM, no LPS, individual replicates
[21] = PBMC + test article 100 uM, no LPS, Mean
[22] = PBMC + test article 100 uM, no LPS, individual replicates

## CC(C)C[C@H](NC(=O)CNC(=O)[C@H](CC(C)C)NC(=O)[C@H](CCC(N)=O)NC(=O)CNC(=O)[C@@H]1C[C@@H](O)CN1)C(=O)N[C@@H](C)C(=O)NCC(=O)N1CCC[C@H]1C(=O)N[C@@H](CCCCN)C(=O)O [YDE-011] (H-[Hyp]GQLGLAGPK-OH)
[1]
  Concentration: 1881.3 pg/mL
  conc/live cell: 355.2 pg/10^5
[2]
  Concentration: 1856.7 pg/mL and 1905.5 pg/mL and 1881.6 pg/mL
  conc/live cell: 412.6 pg/10^5 and 328.5 pg/10^5 and 324.4 pg/10^5
[3]
  Concentration: 1974.9 pg/mL
  conc/live cell: 339.7 pg/10^5
[4]
  Concentration: 1895.6 pg/mL and 2063.3 pg/mL and 1965.9 pg/mL
  conc/live cell: 300.9 pg/10^5 and 332.8 pg/10^5 and 385.5 pg/10^5
[5]
  Concentration: 1708.3 pg/mL
  conc/live cell: 300.6 pg/10^5
[6]
  Concentration: 1699.1 pg/mL and 1759.6 pg/mL and 1666.0 pg/mL
  conc/live cell: 257.4 pg/10^5 and 351.9 pg/10^5 and 292.3 pg/10^5
[7]
  Concentration: 1797.0 pg/mL
  conc/live cell: 358.5 pg/10^5
[8]
  Concentration: 1795.6 pg/mL and 1880.8 pg/mL and 1714.5 pg/mL
  conc/live cell: 326.5 pg/10^5 and 391.8 pg/10^5 and 357.2 pg/10^5
[9]
  Concentration: 1564.4 pg/mL
  conc/live cell: 297.3 pg/10^5
[10]
  Concentration: 1502.6 pg/mL and 1615.2 pg/mL and 1575.4 pg/mL
  conc/live cell: 278.3 pg/10^5 and 278.5 pg/10^5 and 335.2 pg/10^5
[11]
  Concentration: 281.9 pg/mL
  conc/live cell: 46.5 pg/10^5
[12]
  Concentration: 252.0 pg/mL and 301.1 pg/mL and 292.6 pg/mL
  conc/live cell: 41.3 pg/10^5 and 49.4 pg/10^5 and 48.8 pg/10^5

## CC(C)C[C@H](NC(=O)[C@H](CCC(N)=O)NC(=O)CNC(=O)[C@@H]1C[C@@H](O)CN1)C(=O)NCC(=O)O [YDE-043] (H-[Hyp]GQLG-OH; N-terminus and C-terminus assumed)
[1]
  Concentration: 2109.3 pg/mL
  conc/live cell: 427.9 pg/10^5
[2]
  Concentration: 2082.8 pg/mL and 2215.5 pg/mL and 2029.7 pg/mL
  conc/live cell: 473.4 pg/10^5 and 369.2 pg/10^5 and 441.2 pg/10^5
[3]
  Concentration: 2023.7 pg/mL
  conc/live cell: 388.1 pg/10^5
[4]
  Concentration: 2036.2 pg/mL and 1963.4 pg/mL and 2071.4 pg/mL
  conc/live cell: 452.5 pg/10^5 and 297.5 pg/10^5 and 414.3 pg/10^5
[5]
  Concentration: 1922.5 pg/mL
  conc/live cell: 358.4 pg/10^5
[6]
  Concentration: 2109.9 pg/mL and 1768.2 pg/mL and 1889.5 pg/mL
  conc/live cell: 422.0 pg/10^5 and 315.8 pg/10^5 and 337.4 pg/10^5
[7]
  Concentration: 2123.4 pg/mL
  conc/live cell: 402.7 pg/10^5
[8]
  Concentration: 2174.1 pg/mL and 2114.7 pg/mL and 2081.5 pg/mL
  conc/live cell: 374.9 pg/10^5 and 440.6 pg/10^5 and 392.7 pg/10^5
[9]
  Concentration: 1799.9 pg/mL
  conc/live cell: 333.9 pg/10^5
[10]
  Concentration: 1889.0 pg/mL and 1766.4 pg/mL and 1744.2 pg/mL
  conc/live cell: 363.3 pg/10^5 and 327.1 pg/10^5 and 311.5 pg/10^5
[11]
  Concentration: 281.0 pg/mL
  conc/live cell: 44.6 pg/10^5
[12]
  Concentration: 258.9 pg/mL and 303.0 pg/mL
  conc/live cell: 41.8 pg/10^5 and 47.3 pg/10^5

## CC(C)C[C@H](NC(=O)CNC(=O)[C@H](CC(=O)O)NC(=O)[C@H](CCC(N)=O)NC(=O)CNC(=O)[C@@H]1C[C@@H](O)CN1)C(=O)N[C@@H](C)C(=O)NCC(=O)N1CCC[C@H]1C(=O)N[C@@H](CCCCN)C(=O)O [YY-101] (H-[Hyp]GQDGLAGPK-OH; N-terminus and C-terminus assumed)
[1]
  Concentration: 3936.7 pg/mL
  conc/live cell: 612.8 pg/10^5
[2]
  Concentration: 3765.3 pg/mL and 3838.5 pg/mL and 4206.2 pg/mL
  conc/live cell: 660.6 pg/10^5 and 540.6 pg/10^5 and 637.3 pg/10^5
[3]
  Concentration: 4029.1 pg/mL
  conc/live cell: 653.6 pg/10^5
[4]
  Concentration: 4143.7 pg/mL and 4045.9 pg/mL and 3897.7 pg/mL
  conc/live cell: 647.5 pg/10^5 and 674.3 pg/10^5 and 639.0 pg/10^5
[5]
  Concentration: 3583.8 pg/mL
  conc/live cell: 616.4 pg/10^5
[6]
  Concentration: 3601.3 pg/mL and 3708.0 pg/mL and 3442.0 pg/mL
  conc/live cell: 580.9 pg/10^5 and 713.1 pg/10^5 and 555.2 pg/10^5
[7]
  Concentration: 4023.9 pg/mL
  conc/live cell: 619.0 pg/10^5
[8]
  Concentration: 3902.2 pg/mL and 3911.6 pg/mL and 4257.8 pg/mL
  conc/live cell: 619.4 pg/10^5 and 550.9 pg/10^5 and 686.7 pg/10^5
[9]
  Concentration: 3459.8 pg/mL
  conc/live cell: 524.3 pg/10^5
[10]
  Concentration: 3308.6 pg/mL and 3697.4 pg/mL and 3373.4 pg/mL
  conc/live cell: 551.4 pg/10^5 and 577.7 pg/10^5 and 443.9 pg/10^5
[11]
  Concentration: 598.6 pg/mL
  conc/live cell: 104.2 pg/10^5
[12]
  Concentration: 541.0 pg/mL and 629.1 pg/mL and 625.5 pg/mL
  conc/live cell: 85.9 pg/10^5 and 101.5 pg/10^5 and 125.1 pg/10^5
[13]
  Concentration: 3382.2 pg/mL
  conc/live cell: 692.4 pg/10^5
[14]
  Concentration: 1522.2 pg/mL and 5242.2 pg/mL
  conc/live cell: 292.7 pg/10^5 and 1092.1 pg/10^5
[15]
  Concentration: 2047.1 pg/mL
  conc/live cell: 389.7 pg/10^5
[16]
  Concentration: 1338.6 pg/mL and 2755.6 pg/mL
  conc/live cell: 304.2 pg/10^5 and 475.1 pg/10^5
[17]
  Concentration: 1790.1 pg/mL
  conc/live cell: 325.5 pg/10^5
[18]
  Concentration: 1471.3 pg/mL and 2108.8 pg/mL
  conc/live cell: 267.5 pg/10^5 and 383.4 pg/10^5
[19]
  Concentration: 7729.5 pg/mL
  conc/live cell: 1218.8 pg/10^5
[20]
  Concentration: 12584.2 pg/mL and 2874.9 pg/mL
  conc/live cell: 1966.3 pg/10^5 and 471.3 pg/10^5
[21]
  Concentration: 1095.4 pg/mL
  conc/live cell: 165.8 pg/10^5
[22]
  Concentration: 1394.1 pg/mL and 796.7 pg/mL
  conc/live cell: 217.8 pg/10^5 and 113.8 pg/10^5
